From patent US8853246B2 (Dow AgroSciences LLC, priority 2009, dated 2014) come the findings set out here.

Like-named read-outs stand apart in the source and are kept apart here.

In assay [1] the test system is Green Peach Aphid (Myzus Persicae). As to the kind of experiment: Insecticidal test for green peach aphid in foliar spray assay (col. MYZUPE). In kind it is in vivo. As to conditions: for pest or weed control at 200 ppm: Myzus persicae, 72 h, read-out: MYZUPE 200 ppm (Corrected % Control, rating). The method in brief: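 Corrected % control derives from microscope counts of live aphids per plant, treated against diluent-only checks, 3 days after foliar spraying at ~25 °C and 40% RH. Test solution was 200 ppm in 0.025% aqueous Tween 20, applied to both leaf sides of infested cabbage seedlings, four pots each.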

In assay [2] the test system is Sweetpotato Whitefly-Crawler (Bemisia Tabaci). The experiment in a line: Insecticidal test for sweetpotato whitefly-crawler in foliar spray assay (col. BEMITA). Particulars: for pest or weed control at 200 ppm: Bemisia tabaci, read-out: BEMITA 200 ppm (Corrected % Control, rating). In kind it is in vivo. The gist of the method:
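Percent control, Abbott-corrected against diluent-sprayed plants, from microscope counts of live nymphs 8-9 days after treatment. Test solution at 200 ppm in 0.025% aqueous Tween 20 applied to both leaf sides of egg-infested cotton after a 5-6 day hatch period (82° F, 50% RH).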

Consider `CCN(C(=O)C(C)C[S+](C)[O-])c1sc(-c2cncc(F)c2)nc1C` (centres unmarked) [Compound 258], for which the pest or weed control at 200 ppm in assay [1] (green peach aphid) and in assay [2] (sweetpotato whitefly-crawler) was 80 to 100% throughout.

Turning to `CSCCC(=O)N(C)c1sc(-c2cncc(C#N)c2)nc1Cl` [Compound 508], the pest or weed control at 200 ppm is less than 80% in assay [1] (Abbott's correction formula) and 80 to 100% in assay [2] (Abbott's correction formula).

Regarding `CCCCN1CCCC(C(=O)N(C)c2sc(-c3cncc(F)c3)nc2C)C1` (centres unmarked) [Compound 587], the pest or weed control at 200 ppm in assay [1] (Abbott's correction formula) and in assay [2] (Abbott's correction formula) was 80 to 100% throughout.

`Cc1nc(-c2cccnc2)sc1NC(=O)CN(C)C(=O)C(C)n1cccn1` (centres unmarked) [Compound 429]: the pest or weed control at 200 ppm in assay [1] (Abbott's correction formula) was 80 to 100%; in assay [2] (Abbott's correction formula), less than 80%.

As to `CCN(C(=O)C(C)C)c1sc(-c2cncc(F)c2)nc1Cl` [Compound 275], the pest or weed control at 200 ppm in assay [1] (green peach aphid) and in assay [2] (sweetpotato whitefly-crawler) was 80 to 100% each time.

Take `CCc1nc(-c2cccnc2)sc1N(C)C(=O)C(C)CSC` (centres unmarked) [Compound 50]: the pest or weed control at 200 ppm in assay [1] (green peach aphid) and in assay [2] (sweetpotato whitefly-crawler) was 80 to 100% in each case.

On to `CSCC(C)C(=O)N(C(=O)C(C)C)c1sc(-c2cncc(F)c2)nc1C` (centres unmarked) [Compound 200], for which the pest or weed control at 200 ppm in assay [1] (green peach aphid) and in assay [2] (sweetpotato whitefly-crawler) was 80 to 100% in each case.

For the compound `Cc1nc(-c2cccnc2)sc1NC(=O)c1ccns1` [Compound 344], the pest or weed control at 200 ppm in assay [1] (green peach aphid) and in assay [2] (sweetpotato whitefly-crawler) was less than 80% in each case.

On to `CSCCC(=O)N(C)c1sc(-c2cccnc2)nc1Cl` [Compound 66, N-(4-chloro-2-pyridin-3-yl-thiazol-5-yl)-N-methyl-3-methylsulfanyl-propionamide], for which the pest or weed control at 200 ppm in assay [1] (green peach aphid) and in assay [2] (sweetpotato whitefly-crawler) was 80 to 100% throughout.

Regarding `CCN(C(=O)c1scnc1C)c1sc(-c2cccnc2)nc1Cl` [Compound 555], the pest or weed control at 200 ppm is 80 to 100% in assay [1] (Abbott's correction formula) and less than 80% in assay [2] (Abbott's correction formula).

As for `CSCCOC(=O)N(C)c1cnc(-c2cncc(F)c2)s1` [Compound 75, [2-(5-fluoropyridin-3-yl)-thiazol-5-yl]-methyl-carbamic acid 2-methylsulfanyl-ethyl Ester], the pest or weed control at 200 ppm in assay [1] (green peach aphid) was 80 to 100%; in assay [2] (sweetpotato whitefly-crawler) it was less than 80%.

For the compound `CSC(C)CC(=O)N(C)c1sc(-c2cccnc2)nc1Cl` (centres unmarked) [Compound 248], the pest or weed control at 200 ppm in assay [1] (green peach aphid) and in assay [2] (sweetpotato whitefly-crawler) was 80 to 100% each time.

In the case of `Cc1nc(-c2cccnc2)sc1N1CCCC1=O` [Compound 211], the pest or weed control at 200 ppm in assay [1] (green peach aphid) and in assay [2] (sweetpotato whitefly-crawler) was 80 to 100% in each case.

Consider `CCN(C(=O)CC(C)SC)c1sc(-c2cccnc2)nc1Br` (centres unmarked) [Compound 480], for which the pest or weed control at 200 ppm in assay [1] (Abbott's correction formula) and in assay [2] (Abbott's correction formula) was 80 to 100% in each case.

For the compound `CSCC(C)(C)C(=O)Nc1sc(-c2cccnc2)nc1C` [Compound 57], the pest or weed control at 200 ppm in assay [1] (green peach aphid) and in assay [2] (sweetpotato whitefly-crawler) was 80 to 100% in each case.

As for `C=CC(=O)N(C(=O)C(C)CSC)c1sc(-c2cccnc2)nc1C` (centres unmarked) [Compound 204], the pest or weed control at 200 ppm is 80 to 100% in assay [1] (green peach aphid) and less than 80% in assay [2] (sweetpotato whitefly-crawler).

As to `CCN(C(=O)C(C)CSC)c1sc(-c2cccnc2)nc1-c1ccccc1` (centres unmarked) [Compound 62], the pest or weed control at 200 ppm in assay [1] (green peach aphid) and in assay [2] (sweetpotato whitefly-crawler) was less than 80% in each case.

On to `CCCN(C(=O)C(C)CSC)c1sc(-c2cccnc2)nc1C` (centres unmarked) [Compound 286], for which the pest or weed control at 200 ppm in assay [1] (green peach aphid) and in assay [2] (sweetpotato whitefly-crawler) was 80 to 100% each time.

As to `Cc1nc(-c2cncc(F)c2)sc1N(C)C(=O)C(C)CSCc1ccc(Cl)cc1` (centres unmarked) [Compound 190], the pest or weed control at 200 ppm in assay [1] (green peach aphid) and in assay [2] (sweetpotato whitefly-crawler) was 80 to 100% throughout.

Regarding `CCOC(=O)C(C)C(=O)N(C)c1sc(-c2cccnc2)nc1C` (centres unmarked) [Compound 232], the pest or weed control at 200 ppm was less than 80% in assay [1] (green peach aphid) and 80 to 100% in assay [2] (sweetpotato whitefly-crawler).

With `CCN(C(=O)c1ccc(C[S+](C)[O-])o1)c1sc(-c2cccnc2)nc1Cl` (centres unmarked) [Compound 549], the pest or weed control at 200 ppm in assay [1] (Abbott's correction formula) and in assay [2] (Abbott's correction formula) was 80 to 100% in each case.

Take `CN(C(=O)c1ccoc1)c1sc(-c2cccnc2)nc1Cl` [Compound 401]: the “MYZUPE 200 ppm (Corrected % Control, rating)” value in assay [1] (green peach aphid) is “A (80-100)”. Moreover, the “BEMITA 200 ppm (Corrected % Control, rating)” value in assay [2] (sweetpotato whitefly-crawler) was “A (80-100)”.

As to `Cc1nc(-c2cccnc2)sc1N(C)C(=O)CC[S+](C)[O-]` (centres unmarked) [Compound 90], the pest or weed control at 200 ppm in assay [1] (green peach aphid) and in assay [2] (sweetpotato whitefly-crawler) was 80 to 100% in each case.

On to `CN(C(=O)CC[S+](C)[O-])c1sc(-c2cccnc2)nc1Br` (centres unmarked) [Compound 506], for which the pest or weed control at 200 ppm in assay [1] (Abbott's correction formula) was 80 to 100%; in assay [2] (Abbott's correction formula), less than 80%.

As to `CC(C(=O)N(C)CC(=O)N(C)c1sc(-c2cccnc2)nc1Cl)n1cccn1` (centres unmarked) [Compound 431], the pest or weed control at 200 ppm was 80 to 100% in assay [1] (Abbott's correction formula) and less than 80% in assay [2] (Abbott's correction formula).

Turning to `CCN(C(=O)c1ccco1)c1sc(-c2cccnc2)nc1Cl` [Compound 576], the pest or weed control at 200 ppm is 80 to 100% in assay [1] (Abbott's correction formula) and less than 80% in assay [2] (Abbott's correction formula).

As to `Cc1nc(-c2cccnc2)sc1NC(=O)CN(C)S(=O)(=O)/C=C/c1ccccc1` [Compound 435], the pest or weed control at 200 ppm in assay [1] (Abbott's correction formula) and in assay [2] (Abbott's correction formula) was less than 80% each time.

Consider `CSCCC(=O)N(C)c1sc(-c2cncc(F)c2)nc1Br` [Compound 441], for which the pest or weed control at 200 ppm in assay [1] (Abbott's correction formula) and in assay [2] (Abbott's correction formula) was 80 to 100% each time.

As for `CN(C(=O)OC(C)(C)C)c1sc(-c2cccnc2)nc1C(F)(F)F` [Compound 10, methyl-(2-pyridin-3-yl-4-trifluoromethyl-thiazol-5-yl)carbamic acid tert-butyl ester], the pest or weed control at 200 ppm in assay [1] (green peach aphid) was less than 80%; in assay [2] (sweetpotato whitefly-crawler) it was 80 to 100%.

As for `CCC(C)C(=O)N(CC)c1sc(-c2cccnc2)nc1Cl` (centres unmarked) [Compound 531], the pest or weed control at 200 ppm in assay [1] (Abbott's correction formula) and in assay [2] (Abbott's correction formula) was 80 to 100% each time.

On to `CCN(C(=O)C(C)C(C)[S+](C)[O-])c1sc(-c2cccnc2)nc1Cl` (centres unmarked) [Compound 565], for which the pest or weed control at 200 ppm in assay [1] (Abbott's correction formula) and in assay [2] (Abbott's correction formula) was 80 to 100% in each case.

As to `CSCC(Cc1ccccc1)C(=O)N(C)c1sc(-c2cccnc2)nc1C` (centres unmarked) [Compound 330], the pest or weed control at 200 ppm in assay [1] (green peach aphid) and in assay [2] (sweetpotato whitefly-crawler) was less than 80% in each case.

`CSCC(C)C(=O)Nc1sc(-c2cccnc2)nc1C(F)(F)F` (centres unmarked) [Compound 134]: the pest or weed control at 200 ppm in assay [1] (green peach aphid) was 80 to 100%; in assay [2] (sweetpotato whitefly-crawler), less than 80%.

As for `CCN(C(C)=O)c1sc(-c2cccnc2)nc1Cl` [Compound 533], the pest or weed control at 200 ppm in assay [1] (Abbott's correction formula) and in assay [2] (Abbott's correction formula) was 80 to 100% throughout.

As for `Cc1nc(-c2cccnc2)sc1N(C)C(=O)C(NC(=O)OC(C)(C)C)C(C)OCc1ccccc1` (centres unmarked) [Compound 293], the pest or weed control at 200 ppm in assay [1] (green peach aphid) was 80 to 100%; in assay [2] (sweetpotato whitefly-crawler), less than 80%.

For `CCN(C(=O)CC(C)SC)c1sc(-c2cncc(F)c2)nc1C` (centres unmarked) [Compound 300], the pest or weed control at 200 ppm in assay [1] (green peach aphid) is 80 to 100%; in assay [2] (sweetpotato whitefly-crawler), less than 80%.

Regarding `CSCC(C)C(=O)N(CC1CC1(F)F)c1sc(-c2cccnc2)nc1C` (centres unmarked) [Compound 467], the results for the pest or weed control at 200 ppm in assay [1] (Abbott's correction formula) and in assay [2] (Abbott's correction formula) were 80 to 100% and less than 80%, respectively.
